Literature values in patent publication US20210400960A1, “INSECT REPELLENT COMPOSITION” (Mother Earth Dermatics (MED) GMBH, priority 2018, published 2021).

Tested on: insects
Settings: depending on the concentration

## CCN(CC)C(=O)c1cccc(C)c1 [DEET, N,N-diethyl-m-toluamide]
  Duration of repellent effect: 6 to 8 h
